IC50 data for 40 compounds are collected here from ChEMBL document CHEMBL1795338, “Identification of pentacyclic triterpenes derivatives as potent inhibitors against glycogen phosphorylase based on 3D-QSAR studies” (Eur J Med Chem, 2011).

This test has as its target T1, Glycogen phosphorylase, muscle form (Oryctolagus cuniculus, UniProt P00489).
T1 sequence (P00489 whole entry): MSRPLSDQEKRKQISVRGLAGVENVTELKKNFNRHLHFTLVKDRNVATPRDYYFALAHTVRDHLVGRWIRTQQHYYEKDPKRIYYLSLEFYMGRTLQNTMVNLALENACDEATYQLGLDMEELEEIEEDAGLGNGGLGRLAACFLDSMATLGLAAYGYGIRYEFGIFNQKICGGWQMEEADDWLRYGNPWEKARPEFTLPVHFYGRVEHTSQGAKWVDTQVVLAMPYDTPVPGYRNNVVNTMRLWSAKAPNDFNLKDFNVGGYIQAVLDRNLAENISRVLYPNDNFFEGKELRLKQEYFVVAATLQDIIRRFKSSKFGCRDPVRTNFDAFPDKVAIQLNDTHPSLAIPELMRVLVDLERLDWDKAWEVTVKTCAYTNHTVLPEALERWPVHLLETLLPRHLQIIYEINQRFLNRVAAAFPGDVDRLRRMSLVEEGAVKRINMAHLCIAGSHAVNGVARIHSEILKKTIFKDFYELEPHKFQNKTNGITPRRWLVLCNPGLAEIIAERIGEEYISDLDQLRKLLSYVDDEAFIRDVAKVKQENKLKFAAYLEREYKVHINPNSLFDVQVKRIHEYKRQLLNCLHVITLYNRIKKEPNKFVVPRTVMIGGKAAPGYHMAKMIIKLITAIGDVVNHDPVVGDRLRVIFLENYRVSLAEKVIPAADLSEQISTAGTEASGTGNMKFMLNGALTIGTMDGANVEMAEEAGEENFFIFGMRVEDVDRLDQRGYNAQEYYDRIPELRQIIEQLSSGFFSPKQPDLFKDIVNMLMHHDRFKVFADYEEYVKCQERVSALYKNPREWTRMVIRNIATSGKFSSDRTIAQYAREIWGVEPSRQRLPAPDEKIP
Nature of the test: Inhibition of rabbit muscle glycogen phosphorylase A assessed as release of phosphate from glucose-1-phosphate after 25 mins by microplate reader based method.
The term IC50 denotes the concentration needed to halve the response being measured. With `CC1(C)CC[C@]2(C(=O)O)CC[C@]3(C)C(=CC[C@@H]4[C@@]5(C)C[C@@H](O)CC(C)(C)[C@@H]5CC[C@]43C)[C@@H]2C1`, the IC50 came out at 16.1 µM.
To `CC1(C)CC[C@]2(C(=O)O)CC[C@]3(C)C(=CC[C@@H]4[C@@]5(C)C[C@H](O)CC(C)(C)[C@@H]5CC[C@]43C)[C@@H]2C1` belongs 22.7 µM; to `CC1(C)CC[C@]2(C(=O)OCc3ccccc3)CC[C@]3(C)C(=CC[C@@H]4[C@@]5(C)CC[C@H](OC(=O)c6ccc([N+](=O)[O-])cc6)C(C)(C)[C@@H]5CC[C@]43C)[C@@H]2C1`, 16.1 µM.
For the compound `CC1(C)CC[C@]2(C(=O)OCc3ccccc3)CC[C@]3(C)C(=CC[C@@H]4[C@@]5(C)CC[C@H](OC(=O)c6ccc(N)cc6)C(C)(C)[C@@H]5CC[C@]43C)[C@@H]2C1`, the 50% inhibitory concentration (IC50) is 2.13 µM.
To `CC1(C)CC[C@]2(C(=O)OCc3ccccc3)CC[C@]3(C)C(=CC[C@@H]4[C@@]5(C)CC[C@H](OC(=O)[n+]6ccccc6)C(C)(C)[C@@H]5CC[C@]43C)[C@@H]2C1` belongs 5.39 µM.
To `CC1(C)CC[C@]2(C(=O)OCc3ccccc3)CC[C@]3(C)C(=CC[C@@H]4[C@@]5(C)CC[C@H](OC(=O)Cn6cc(COC(=O)Cc7ccccc7)nn6)C(C)(C)[C@@H]5CC[C@]43C)[C@@H]2C1` belongs 27.7 µM.
As to `CCCCCCCCCCCC(=O)OCc1cn(CC(=O)O[C@H]2CC[C@]3(C)[C@H]4CC=C5[C@@H]6CC(C)(C)CC[C@]6(C(=O)OCc6ccccc6)CC[C@@]5(C)[C@]4(C)CC[C@H]3C2(C)C)nn1`, the IC50 was determined as 7.76 µM.
Regarding `COC(=O)[C@H](Cc1ccc(OCc2cn(CC(=O)O[C@H]3CC[C@]4(C)[C@H]5CC=C6[C@@H]7CC(C)(C)CC[C@]7(C(=O)OCc7ccccc7)CC[C@@]6(C)[C@]5(C)CC[C@H]4C3(C)C)nn2)cc1)NC(=O)OC(C)(C)C`, the IC50 turned out to be 17.5 µM.
On to `CC(=O)O[C@H]1CC[C@]2(C)[C@H]3CC=C4[C@@H]5CC(C)(C)CC[C@]5(C(=O)OC[C@H](O)[C@H]5OC(=O)C(O)=C5O)CC[C@@]4(C)[C@]3(C)CC[C@H]2C1(C)C`, for which the IC50 came to 2.23 µM.
Take `CC(=O)NCCNCCNC(=O)[C@]12CCC(C)(C)C[C@H]1C1=CC[C@@H]3[C@@]4(C)CC[C@H](OC(C)=O)C(C)(C)[C@@H]4CC[C@@]3(C)[C@]1(C)CC2`: the IC50 came out at 3.25 µM.
Take `C[C@H]1[C@H](C)CC[C@]2(C(=O)OCCBr)CC[C@]3(C)C(=CC[C@@H]4[C@@]5(C)CC[C@H](O)C(C)(C)[C@@H]5CC[C@]43C)[C@H]12`: the IC50 is 10.2 µM.
To `C[C@H]1[C@H](C)CC[C@]2(C(=O)OCCNC3CCCCC3)CC[C@]3(C)C(=CC[C@@H]4[C@@]5(C)CC[C@H](O)C(C)(C)[C@@H]5CC[C@]43C)[C@H]12` belongs 25.6 µM; to `CC(=O)O[C@H]1CC[C@]2(C)[C@H]3CC=C4[C@@H]5[C@@H](C)[C@H](C)CC[C@]5(C(=O)OC[C@H](O)[C@H]5OC(=O)C(O)=C5O)CC[C@@]4(C)[C@]3(C)CC[C@H]2C1(C)C`, 1.53 µM; to `CC1(C)CC[C@]2(C(=O)O)CC[C@]3(C)C(=CC[C@@H]4[C@@]5(C)CC[C@H](OC(=O)Cn6cc(COC(=O)Cc7ccccc7)nn6)C(C)(C)[C@@H]5CC[C@]43C)[C@@H]2C1`, 30.9 µM.
To `COCc1cn(CCCCCCn2cc(CO[C@H]3CC[C@]4(C)[C@H]5CC=C6[C@@H]7CC(C)(C)CC[C@]7(C(=O)O)CC[C@@]6(C)[C@]5(C)CC[C@H]4C3(C)C)nn2)nn1` belongs 2.59 µM; to `C[C@H]1[C@H](C)CC[C@]2(C(=O)O)CC[C@]3(C)C(=CC[C@@H]4[C@@]5(C)C[C@H](O)CC(C)(C)[C@@H]5CC[C@]43C)[C@H]12`, 20.6 µM; to `CC1(C)CC[C@]2(C(=O)OCc3ccccc3)CC[C@]3(C)C(=CC[C@@H]4[C@@]5(C)C[C@H](O)[C@@H](O)C(C)(C)[C@@H]5CC[C@]43C)[C@@H]2C1`, 6.59 µM.
To `CC(=O)O[C@@H]1O[C@H](OC(=O)[C@]23CCC(C)(C)C[C@H]2C2=CC[C@@H]4[C@@]5(C)C[C@@H](O)[C@H](O)C(C)(C)[C@@H]5CC[C@@]4(C)[C@]2(C)CC3)[C@@H](OC(C)=O)[C@H](OC(C)=O)[C@H]1OC(C)=O` belongs 18.6 µM.
As to `CCC(=O)O[C@@H]1C[C@]2(C)[C@H]3CC=C4[C@@H]5CC(C)(C)CC[C@]5(C(=O)O)CC[C@@]4(C)[C@]3(C)CC[C@H]2C(C)(C)[C@H]1OC(=O)CC`, the IC50 came out at 10.5 µM.
Regarding `CCCC(=O)O[C@@H]1C[C@]2(C)[C@H]3CC=C4[C@@H]5CC(C)(C)CC[C@]5(C(=O)O)CC[C@@]4(C)[C@]3(C)CC[C@H]2C(C)(C)[C@H]1OC(=O)CCC`, the half-inhibitory concentration (IC50) is 25.2 µM.
To `C[C@H]1[C@H](C)CC[C@]2(C(=O)OCc3ccccc3)CC[C@]3(C)C(=CC[C@@H]4[C@@]5(C)C[C@H](O)[C@@H](O)C(C)(C)[C@@H]5CC[C@]43C)[C@H]12` belongs 1.25 µM.
To `COC(=O)[C@H](Cc1ccccc1)NC(=O)[C@]12CC[C@@H](C)[C@H](C)[C@H]1C1=CC[C@@H]3[C@@]4(C)C[C@@H](OC(C)=O)[C@H](OC(C)=O)C(C)(C)[C@@H]4CC[C@@]3(C)[C@]1(C)CC2` belongs 23.9 µM; to `COC(=O)[C@H](Cc1ccc(O)cc1)NC(=O)[C@]12CC[C@@H](C)[C@H](C)[C@H]1C1=CC[C@@H]3[C@@]4(C)C[C@@H](OC(C)=O)[C@H](OC(C)=O)C(C)(C)[C@@H]4CC[C@@]3(C)[C@]1(C)CC2`, 11.2 µM.
Regarding `CC1(C)CC[C@]2(C(=O)O)CC[C@]3(C)[C@H]([C@@H](O)C[C@@H]4[C@@]5(C)CC[C@H](O)C(C)(C)[C@@H]5CC[C@]43C)[C@@H]2C1`, the IC50 turned out to be 3.07 µM.
Regarding `CC1(C)CC[C@]2(C(=O)OCc3ccccc3)CC[C@]3(C)[C@H]([C@@H](O)C[C@@H]4[C@@]5(C)CC[C@H](O)C(C)(C)[C@@H]5CC[C@]43C)[C@@H]2C1`, the IC50 was 6.54 µM.
To `CC1(C)CC[C@]2(C(=O)OCc3ccccc3)CC[C@]3(C)[C@H]([C@H](O)C[C@@H]4[C@@]5(C)CC[C@H](O)C(C)(C)[C@@H]5CC[C@]43C)[C@@H]2C1` belongs 5.35 µM; to `CC1(C)CC[C@]2(C(=O)OCC(=O)O)CC[C@]3(C)C(=CC[C@@H]4[C@@]5(C)CC[C@H](O)C(C)(C)[C@@H]5CC[C@]43C)[C@@H]2C1`, 62.6 µM; to `CCOC(=O)CCCOC(=O)[C@]12CCC(C)(C)C[C@H]1C1=CC[C@@H]3[C@@]4(C)CC[C@H](O)C(C)(C)[C@@H]4CC[C@@]3(C)[C@]1(C)CC2`, 76.7 µM.
On to `CNCCOC(=O)[C@]12CCC(C)(C)C[C@H]1C1=CC[C@@H]3[C@@]4(C)CC[C@H](O)C(C)(C)[C@@H]4CC[C@@]3(C)[C@]1(C)CC2`, for which the IC50 was found to be 53.2 µM.
To `C[C@H]1[C@H](C)CC[C@]2(C(=O)OCC(=O)O)CC[C@]3(C)C(=CC[C@@H]4[C@@]5(C)CC[C@H](O)C(C)(C)[C@@H]5CC[C@]43C)[C@H]12` belongs 188 µM; to `CCOC(=O)COC(=O)[C@]12CC[C@@H](C)[C@H](C)[C@H]1C1=CC[C@@H]3[C@@]4(C)CC[C@H](O)C(C)(C)[C@@H]4CC[C@@]3(C)[C@]1(C)CC2`, 4.1 µM.
As to `CC1(C)CC[C@]2(C(=O)O)CC[C@]3(C)C(=CC[C@@H]4[C@@]5(C)CC[C@H](OC(=O)/C=C\c6ccc(Cl)cc6)C(C)(C)[C@@H]5CC[C@]43C)[C@@H]2C1`, the IC50 stood at 3.3 µM.
To `COc1ccc(/C=C\C(=O)O[C@H]2CC[C@]3(C)[C@H]4CC=C5[C@@H]6CC(C)(C)CC[C@]6(C(=O)O)CC[C@@]5(C)[C@]4(C)CC[C@H]3C2(C)C)cc1` belongs 16.9 µM.
To `CC1(C)CC[C@]2(C(=O)O)CC[C@]3(C)C(=CC[C@@H]4[C@@]5(C)CCC(=O)[C@@](C)(CO)[C@@H]5CC[C@]43C)[C@@H]2C1` belongs 53.5 µM; to `CC1(C)CC[C@]2(C(=O)O)CC[C@]3(C)C(=CC[C@@H]4[C@@]5(C)CC/C(=N\O)C(C)(C)[C@@H]5CC[C@]43C)[C@@H]2C1`, 225 µM; to `CC1(C)CC[C@]2(C(=O)OCc3ccccc3)CC[C@]3(C)C(=CC[C@@H]4[C@@]5(C)CC/C(=N\O)C(C)(C)[C@@H]5CC[C@]43C)[C@@H]2C1`, 20.8 µM.
To `CC(=O)O[C@@H]1C[C@]2(C)[C@H]3CC=C4[C@@H]5CC(C)(C)CC[C@]5(C(=O)O)CC[C@@]4(C)[C@]3(C)CC[C@H]2C(C)(C)[C@H]1OC(C)=O` belongs 13.3 µM.
Regarding `C[C@H]1[C@H](C)CC[C@]2(C(=O)O)CC[C@]3(C)C(=CC[C@@H]4[C@@]5(C)CC[C@H](OC(=O)CCC(=O)O)C(C)(C)[C@@H]5CC[C@]43C)[C@H]12`, the IC50 came out at 27.6 µM.
Consider `CC1(C)CC[C@]2(C(=O)O)CC[C@]3(C)C(=CC[C@@H]4[C@@]5(C)Cc6nc7ccccc7nc6C(C)(C)[C@@H]5CC[C@]43C)[C@@H]2C1`, for which the 50% inhibitory concentration (IC50) amounted to 14 µM.
To `CC1(C)CC[C@]2(C(=O)O)CC[C@]3(C)C(=CC[C@@H]4[C@@]5(C)Cc6nccnc6C(C)(C)[C@@H]5CC[C@]43C)[C@@H]2C1` belongs 25.1 µM.
